Measurements published in the NIST ThermoML archive (doi:10.1021/je201116t).

Assay: xn = mol fraction of the nth substance listed
Details: 101 kPa, Liquid; for viscosity: Capillary tube (Ostwald / Ubbelohde) method

CCC(=O)[O-].CC[NH+]1CCNCC1 [N-ethylpiperazinium propionate] + CCO
Details	mass density, 298.15 K [kg/m3]	mass density, 303.15 K [kg/m3]	mass density, 308.15 K [kg/m3]	mass density, 313.15 K [kg/m3]	viscosity, 298.15 K [mPa·s]	viscosity, 303.15 K [mPa·s]	viscosity, 308.15 K [mPa·s]	viscosity, 313.15 K [mPa·s]
x2 = 0	1008.36	1004.38	1000.33	996.237	243.49	164.81	113.44	80.93
x2 = 0.0971	1002.79	998.809	994.769	990.695	170.13	119.44	85.41	61.23
x2 = 0.2017	995.311	991.322	987.293	983.232	109.9	82.6	60.3	44.79
x2 = 0.3033	986.576	982.598	978.579	974.526	75.85	55.8	42.03	32.1
x2 = 0.3983	976.628	972.658	968.645	964.592	48.89	37.01	28.65	22.63
x2 = 0.5001	963.41	959.429	955.408	951.35	29.59	23.34	18.57	15.06
x2 = 0.6006	946.741	942.745	938.702	934.623	17.18	14	11.54	9.602
x2 = 0.6994	925.277	921.231	917.149	913.029	9.403	7.923	6.734	5.766
x2 = 0.8001	895.282	891.163	887.012	882.818	4.925	4.279	3.74	3.286
x2 = 0.8998	852.465	848.243	843.982	839.679	2.437	2.175	1.947	1.749

CCC(=O)[O-].CC[NH+]1CCNCC1 [N-ethylpiperazinium propionate] + CO
Details	mass density, 298.15 K [kg/m3]	mass density, 303.15 K [kg/m3]	mass density, 308.15 K [kg/m3]	mass density, 313.15 K [kg/m3]	viscosity, 298.15 K [mPa·s]	viscosity, 303.15 K [mPa·s]	viscosity, 308.15 K [mPa·s]	viscosity, 313.15 K [mPa·s]
x2 = 0	1008.36	1004.38	1000.33	996.237	243.49	164.81	113.44	80.93
x2 = 0.107	1004.94	1000.96	996.919	992.856	172.19	121.04	86.27	62.74
x2 = 0.21	1000.73	996.739	992.724	988.682	123.07	89.92	65.93	49.08
x2 = 0.297	996.263	992.299	988.292	984.255	84.02	63.49	47.38	36.14
x2 = 0.402	989.36	985.408	981.411	977.382	52.96	40.86	31.63	24.89
x2 = 0.5021	980.548	976.585	972.582	968.548	32.54	25.5	20.36	16.5
x2 = 0.5994	968.97	964.991	960.968	956.912	18.41	15.03	12.4	10.4
x2 = 0.7015	951.447	947.38	943.3	939.188	9.416	7.866	6.73	5.804
x2 = 0.7998	925.328	921.15	916.957	912.733	4.331	3.807	3.366	2.989
x2 = 0.8999	879.78	875.414	871.008	866.573	1.754	1.592	1.451	1.327
